molecular target: BTK (Homo sapiens, UniProt Q06187); assay: biochemical; conditions: read-out: BTK inhibition (%)
Sequence (Q06187 402-655 limits assumed): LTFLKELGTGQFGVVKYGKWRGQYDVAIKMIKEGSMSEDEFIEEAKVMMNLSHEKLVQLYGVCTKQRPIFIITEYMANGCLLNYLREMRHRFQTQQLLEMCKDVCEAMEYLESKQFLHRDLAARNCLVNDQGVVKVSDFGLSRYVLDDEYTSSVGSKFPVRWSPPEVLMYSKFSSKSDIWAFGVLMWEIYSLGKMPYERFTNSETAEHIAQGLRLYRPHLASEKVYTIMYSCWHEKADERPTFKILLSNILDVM

SMILES | inhibition at 10 µM [%]
S=C=Nc1cccc(NC(=S)NCCCCNC(=S)Nc2cccc(N=C=S)c2)c1 [PCM-0095477] | 38.9

same assay, conditions: read-out: BTK inhibition (%), 0.75 uM BTK, […] probe 3l, 15 min preincubation

SMILES | inhibition at 10 µM [%]
CO[C@@H]1[C@H](OC(=O)/C=C/C=C/C=C/C=C/C(=O)O)CC[C@]2(CO2)[C@H]1[C@@]1(C)O[C@@H]1CC=C(C)C [PCM-0215572] | 3.9
Cc1cccc(C)c1NC(=O)CN1CCCC1=O [PCM-0065191] | -8.6
NC(CO)C(=O)O (stereo not shown) [PCM-0216194] | 1.7
COc1cc(C(=O)O)ccc1NC(=O)[C@@H]1N[C@@H](CC(C)(C)C)[C@](C#N)(c2ccc(Cl)cc2F)[C@H]1c1cccc(Cl)c1F [PCM-0215391] | 27.8
CN1CCN(c2ccc(Nc3ncc4cc(C#N)c(=O)n(C5CCCC5)c4n3)cc2)CC1 [PCM-0215612] | 19.3
CC(C)=CCC[C@@](C)(O)[C@H]1CC[C@]2(C)[C@@H]1[C@H](O)C[C@@H]1[C@@]3(C)CC[C@H](O[C@@H]4O[C@H](CO)[C@@H](O)[C@H](O)[C@H]4O)C(C)(C)[C@@H]3CC[C@]12C [PCM-0216344] | -23.2
Clc1ccc(N/N=C(\c2ccccc2)c2ccccn2)nc1 [PCM-0215265] | 6.2
CCN(CC)CCNC(=O)c1c(C)[nH]c(/C=C2\C(=O)Nc3ccc(-c4csc(-c5ccccc5)n4)cc32)c1C [PCM-0215844] | 29
COc1cc2c(cc1OC)C(=O)C(CC1CCN(Cc3ccccc3)CC1)C2 (stereo not shown) [PCM-0090394] | -23.8
O=C1[C@H]2CCCC[C@H]2C(=O)N1CCCCN1CCN(c2nsc3ccccc23)CC1 [PCM-0216064] | -9.3
Cc1nn(C)c2nc(NNC(=O)Nc3cc(Cl)nc(Cl)c3)cc(C(C)C)c12 [PCM-0215784] | 54.8
O=C1C(c2[nH]c3ccc(S(=O)(=O)O)cc3c2O)=Nc2ccc(S(=O)(=O)O)cc21 [PCM-0216597] | 23.9
CN1CCc2cc(Nc3ncc(C4CC4)c(NCCCNC(=O)C4CCC4)n3)ccc2C1 [PCM-0215643] | -8.5
O=[N+]([O-])c1ccc(Sc2cccc[n+]2[O-])c2nonc12 [PCM-0215705] | 73.4
COc1ccc(O)cc1 [PCM-0090031] | 12.5
O=C1NC(=O)C(c2cnc3ccccn23)=C1c1cn2c3c(cc(F)cc13)CN(C(=O)N1CCCCC1)CC2 [PCM-0215438] | 80
O=C(O)c1ccccc1 [PCM-0090294] | -1.6
CC(C)C1CCC(C(=O)N[C@H](Cc2ccccc2)C(=O)O)CC1 (stereo partly shown) [PCM-0095239] | -4.7
OCCN1C[C@H](O)[C@@H](O)[C@H](O)[C@H]1CO [PCM-0086065] | -23.3

SMILES | inhibition at 10 µM [%]
CCn1nc(C2CCN(C(=O)CCO)CC2)nc1-c1cnc(N)c(-c2nnc(C(C)(C)C)o2)n1 [PCM-0215697] | 9.7
CC(=O)OCC1=C(C(=O)O)N2C(=O)[C@@H](N)[C@H]2SC1 [PCM-0215190] | -8.5
CC(C)(C)n1nc(-c2ccc(Cl)cc2)c2c(N)ncnc21 [PCM-0095568] | 47.6
Nc1cccc2c1C(=O)N(C1CCC(=O)NC1=O)C2=O (stereo not shown) [PCM-0095126] | 11
CC(C)n1nc(-c2ccc(NC(=O)Nc3cc(C(F)(F)F)ccc3F)cc2)c2c(N)ncnc21 [PCM-0215828] | 106
O=c1c2ccccc2nc2n1CCc1c-2[nH]c2ccccc12 [PCM-0065551] | 0.7
Cc1ccc(S(=O)(=O)Nc2nc3ccccc3nc2Nc2ccc3nsnc3c2)cc1 [PCM-0094918] | -1.7
COc1ccc2cc(CCC(C)=O)ccc2c1 [PCM-0086446] | 7.6
O=c1ccn([C@@H]2O[C@H](CO)[C@@H](O)[C@@H]2O)c(=O)[nH]1 [PCM-0215072] | 5.4
Cn1cc(C[C@@H](N)C(=O)O)c2ccccc21 [PCM-0215432] | -11.1
Cc1noc(C)c1-c1ccc(-c2cc(C(N)=O)c(NC(N)=O)s2)c(O[C@H]2CCNC2)c1 [PCM-0215541] | 74.1
COc1ncnc(NS(=O)(=O)c2ccc(N)cc2)c1OC [PCM-0086280] | 0.8
COC1CCN(C(=O)c2cc(Cc3n[nH]c(=O)c4ccccc34)ccc2F)CC1 [PCM-0095571] | 10
CC1=C(C/C=C(\C)CCC[C@H](C)CCC[C@H](C)CCCC(C)C)C(=O)c2ccccc2C1=O [PCM-0216261] | 7.8
O=C(O)C1(Cc2cccc(Nc3nccs3)n2)CCC(Oc2cccc(Cl)c2F)CC1 (stereo not shown) [PCM-0095334] | 102
O=C1Nc2ccc(I)cc2/C1=C/c1cc(Br)c(O)c(Br)c1 [PCM-0095540] | 52.4
O=C(O)c1cc(C(F)(F)F)ccc1N1CC[C@H](OCc2ccccn2)C1 [PCM-0215430] | 8.5
COc1ccc(C=O)c(O)c1 [PCM-0216133] | 5.4
c1ccc(Cn2c(-c3ccc(OC[C@H](C4CCNCC4)n4c(-c5ccccc5)nc5ccccc54)cc3)nc3ccccc32)cc1 [PCM-0215350] | 86.5

SMILES | inhibition at 10 µM [%]
COc1cc(OCc2cccc(-c3ccccc3)c2C)cc(OC)c1CN1CCCC[C@H]1C(=O)O [PCM-0215607] | -35.2
COc1ccc(Oc2cc(C)c(-c3csc(NC(=O)c4ccncc4)n3)c(C)c2)cc1 [PCM-0215413] | 20.8
C=C1CCC[C@]2(C)C=C3OC(=O)C(C)=C3C[C@@H]12 [PCM-0215796] | -4.1
CCn1cc(C(=O)O)c(=O)c2cc(F)c(N3CCNCC3)cc21 [PCM-0085898] | -12.8
O=CN1CC/C(=C\c2ccc3c(c2)OCO3)C1=O [PCM-0215470] | 10.8
O=C(O)c1cc(O)ccc1O [PCM-0215019] | -21.4
COc1cc2ncnc(Oc3cccc(NC(=O)Nc4cc(C(C)(C)C(F)(F)F)on4)c3)c2cc1OC [PCM-0095605] | 4.1
CCC(C(=O)O)c1ccc(N2Cc3ccccc3C2=O)cc1 (stereo not shown) [PCM-0215153] | -18.5
C[C@H]1Oc2cc(cnc2N)-c2c(nn(C)c2C#N)CN(C)C(=O)c2ccc(F)cc21 [PCM-0215394] | 17.9
COC(=O)Nc1nc2ccc(C(=O)c3cccs3)cc2[nH]1 [PCM-0065378] | -6.2
O=C(NCCCNc1nc(Nc2cccc(CN3CCOCC3)c2)ncc1C1CC1)C1CCC1 [PCM-0215642] | 21.6
NCc1c[nH]c(=S)n1[C@@H]1CCc2c(F)cc(F)cc2C1 [PCM-0214808] | 4.7
C=C(C)[C@@H]1CC[C@]2(C=O)CC[C@]3(C)[C@H](CC[C@@H]4[C@@]5(C)CC[C@H](O)C(C)(C)[C@@H]5CC[C@]43C)[C@@H]12 [PCM-0216430] | 19.3
CC(C)OC(=O)CCC/C=C\C[C@@H]1[C@@H](/C=C/C(F)(F)COc2ccccc2)[C@H](O)C[C@@H]1O [PCM-0216028] | -61.5
CCOc1ccc(NC(C)=O)cc1 [PCM-0086095] | 5.5
CC(C)C(=O)OCC(=O)[C@@]12O[C@H](C3CCCCC3)O[C@@H]1C[C@H]1[C@@H]3CCC4=CC(=O)C=C[C@]4(C)[C@H]3[C@@H](O)C[C@@]12C [PCM-0214834] | -6.9
O=C(c1ccc(Cl)cc1)N(Cc1ccccc1)C1CCCCC1 [PCM-0215646] | 20.1
O=C(O)CCCN1CCC(O[C@@H](c2ccc(Cl)cc2)c2ccccn2)CC1 [PCM-0214802] | -17.9
CN[C@H]1CN(c2ccc3c(=O)c(C(=O)O)cn(-c4nccs4)c3n2)C[C@@H]1OC [PCM-0215713] | -17
